These are literature values, as cited in US10875826B2, “Process for the manufacture of SNAC (salcaprozate sodium)” (Emisphere Technologies, Inc., priority 2006, dated 2020).

Structures are written as SMILES. Counter-ions that a name gives are not always drawn.

Turning to `CCCCCN(C)CCC(O)(P(=O)(O)O)P(=O)(O)O` [Ibandronate sodium, 3-(N-methyl-N-pentyl)-amino-1-hydroxypropane-1,1-diphosphonic acid, monosodium salt, monohydrate], where the note is “organic solvents”, the “solubility in organic solvents” value is recorded as “practically insoluble”. The solubility in water entry (water) is “freely soluble”.
